#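 Interpolation was linear, between the two tested concentrations surrounding the appropriate level; five concentrations were tested over 48 hours in 96-well plates. GI50 = concentration required for 50% inhibition of growth.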 Active and inactive are the calls of the source. Rule as the data show it: active = GI50 up to about 1.1 µM and inactive = higher.
# Legend:
# Assay in all cases: NCI tumour cell line growth inhibition, 48 h
# HCT-116 = system: HCT-116
# HCT-15 = system: HCT-15
# LOX IMVI = system: LOX IMVI
# SK-MEL-2 = system: SK-MEL-2
# A549 = system: A549
# MOLT-4 = system: MOLT-4
# UACC-62 = system: UACC-62
# Hs-578T = system: Hs-578T
# CAKI-1 = system: CAKI-1
# COLO 205 = system: COLO 205
# HOP-62 = system: HOP-62
# IGROV-1 = system: IGROV-1
# KM12 = system: KM12
# OVCAR-8 = system: OVCAR-8
# HL-60 = system: HL-60
# HT-29 = system: HT-29
# SR = system: SR
# HOP-92 = system: HOP-92
# RXF 393 = system: RXF 393
# Malme-3M = system: Malme-3M
SMILES,GI50 (HCT-116),GI50 (HCT-15) [µM],GI50 (LOX IMVI),GI50 (SK-MEL-2),GI50 (A549),GI50 (MOLT-4),GI50 (UACC-62),GI50 (Hs-578T),GI50 (CAKI-1),GI50 (COLO 205),GI50 (HOP-62),GI50 (IGROV-1),GI50 (KM12),GI50 (OVCAR-8),GI50 (HL-60),GI50 (HT-29),GI50 (SR),GI50 (HOP-92),GI50 (RXF 393),GI50 (Malme-3M)
CCC1(CC)C(=O)OC(=O)C1(CC)CC,> 100 µM (inactive),> 100,> 100 µM (inactive),> 100 µM (inactive),> 100 µM (inactive),> 100 µM (inactive),> 100 µM (inactive),15.2 µM (inactive),> 100 µM (inactive),> 100 µM (inactive),> 100 µM (inactive),> 100 µM (inactive),> 100 µM (inactive),> 100 µM (inactive),> 100 µM (inactive),> 100 µM (inactive),> 100 µM (inactive),–,–,–
CC(C)(C)C(=O)c1c(O)c2ccccc2c2ccccc2c1=O,> 100 µM (inactive),64.4,47.8 µM (inactive),> 100 µM (inactive),> 100 µM (inactive),> 100 µM (inactive),76.4 µM (inactive),85.7 µM (inactive),> 100 µM (inactive),> 100 µM (inactive),82.2 µM (inactive),–,79.3 µM (inactive),82.6 µM (inactive),> 100 µM (inactive),49.7 µM (inactive),–,32.4 µM (inactive),–,–
C[C@]12CCC3c4ccc(O)cc4CC[C@H]3C1CC(=O)N(CCN1CCCC1)C2=O (stereo not given in full),> 10 µM (inactive),> 10,> 10 µM (inactive),> 10 µM (inactive),> 10 µM (inactive),> 10 µM (inactive),> 10 µM (inactive),> 10 µM (inactive),> 10 µM (inactive),> 10 µM (inactive),> 10 µM (inactive),> 10 µM (inactive),> 10 µM (inactive),> 10 µM (inactive),> 10 µM (inactive),> 10 µM (inactive),> 10 µM (inactive),–,> 10 µM (inactive),> 10 µM (inactive)
O=S(=O)(N/C(=N\O)Nc1ccc(Cl)cc1)c1cc2ccccc2o1,11.4 µM (inactive),14.7,11.5 µM (inactive),16.6 µM (inactive),26.1 µM (inactive),22.6 µM (inactive),10.9 µM (inactive),20.4 µM (inactive),10.6 µM (inactive),22.6 µM (inactive),23.6 µM (inactive),12.6 µM (inactive),13.2 µM (inactive),18.1 µM (inactive),15.3 µM (inactive),22.9 µM (inactive),–,13.3 µM (inactive),34.8 µM (inactive),19.9 µM (inactive)
CC1CC(C(=O)OC2OC(COC3OC(CO)C(OC4OC(C)C(O)C(O)C4O)C(O)C3O)C(O)C(O)C2O)C2CCC3(C)C(=CCC4(C)C3CCC3C(C)(CO)C(O)C(O)CC34C)C2C1C (stereo not given),18.2 µM (inactive),> 100,21.7 µM (inactive),18.9 µM (inactive),96.6 µM (inactive),19.6 µM (inactive),17.7 µM (inactive),17.7 µM (inactive),> 100 µM (inactive),17.3 µM (inactive),17.7 µM (inactive),16.9 µM (inactive),17.9 µM (inactive),17.4 µM (inactive),21.6 µM (inactive),21.8 µM (inactive),17.9 µM (inactive),17.4 µM (inactive),–,–
C[N+]12C=CC=C1C(N1CCCC1)c1sc(-c3ccc(Cl)cc3)cc12 (stereo not given),16.1 µM (inactive),30.5,16 µM (inactive),8.39 µM (inactive),28.6 µM (inactive),16.9 µM (inactive),15.1 µM (inactive),22.1 µM (inactive),> 100 µM (inactive),16.9 µM (inactive),17.5 µM (inactive),16.9 µM (inactive),17 µM (inactive),16.9 µM (inactive),–,17.4 µM (inactive),11.6 µM (inactive),–,17.9 µM (inactive),15.6 µM (inactive)
Cc1cc(C)c(C(=O)c2nnc3ccccc3c2N)c(C)c1,10.3 µM (inactive),–,16 µM (inactive),14.9 µM (inactive),23.3 µM (inactive),45.4 µM (inactive),16.4 µM (inactive),24 µM (inactive),19.3 µM (inactive),15.2 µM (inactive),13.6 µM (inactive),15.3 µM (inactive),16.4 µM (inactive),–,7.55 µM (inactive),25.5 µM (inactive),24 µM (inactive),3.65 µM (inactive),–,–
CC1=NNC(=O)C1C1CC(c2c[nH]c3ccccc23)=NNC1=S (stereo not given),> 100 µM (inactive),39.7,–,> 100 µM (inactive),> 100 µM (inactive),37.2 µM (inactive),> 100 µM (inactive),> 100 µM (inactive),> 100 µM (inactive),72.1 µM (inactive),> 100 µM (inactive),–,29.6 µM (inactive),> 100 µM (inactive),68.4 µM (inactive),> 100 µM (inactive),–,> 100 µM (inactive),> 100 µM (inactive),> 100 µM (inactive)
CCC[C@H](O)[C@@H](CNc1cc(NC(C)=O)nc(NC(C)=O)n1)N(Cc1ccccc1)Cc1ccccc1,16.6 µM (inactive),31.7,27.9 µM (inactive),27.4 µM (inactive),13.2 µM (inactive),4.47 µM (inactive),18.3 µM (inactive),14 µM (inactive),18.2 µM (inactive),26.3 µM (inactive),15.2 µM (inactive),12.8 µM (inactive),11.1 µM (inactive),13.7 µM (inactive),–,–,49.5 µM (inactive),34.4 µM (inactive),–,26.1 µM (inactive)
OCc1ccc2c(c1)CC1(Cc3ccc(/C=N/O)cc3C1)C2 (stereo not given),3.26 µM (inactive),1.16,2.93 µM (inactive),7.26 µM (inactive),4.93 µM (inactive),4.73 µM (inactive),3.24 µM (inactive),2.45 µM (inactive),7.8 µM (inactive),3.1 µM (inactive),5.45 µM (inactive),2.84 µM (inactive),1.29 µM (inactive),4.45 µM (inactive),0.41 µM (active),1.89 µM (inactive),–,7.74 µM (inactive),–,9.1 µM (inactive)
OC(C#CCN1CCCC1)(c1ccccc1)c1ccccc1Cl (stereo not given),30.1 µM (inactive),68.5,18.7 µM (inactive),26.6 µM (inactive),33.4 µM (inactive),33.7 µM (inactive),27.2 µM (inactive),31 µM (inactive),24.8 µM (inactive),12.5 µM (inactive),19.5 µM (inactive),14.8 µM (inactive),27.5 µM (inactive),33.8 µM (inactive),26.8 µM (inactive),16.5 µM (inactive),36.3 µM (inactive),–,46.8 µM (inactive),> 10 µM (inactive)
COc1ccc(OC)c2sc(N3C(=O)/C(=C/c4ccc(N(C)C)cc4)N=C3c3ccccc3)nc12,34.8 µM (inactive),59.2,41 µM (inactive),36.9 µM (inactive),83.6 µM (inactive),15.5 µM (inactive),28.3 µM (inactive),91 µM (inactive),> 100 µM (inactive),> 100 µM (inactive),> 100 µM (inactive),> 100 µM (inactive),52 µM (inactive),78.5 µM (inactive),20.9 µM (inactive),61.8 µM (inactive),19.6 µM (inactive),> 100 µM (inactive),–,–
Cc1ccc(/C(=C\C(=O)C(=O)NC23CC4CC(CC(C4)C2)C3)Sc2ccccc2)cc1,–,> 10,> 10 µM (inactive),> 10 µM (inactive),–,4.63 µM (inactive),–,> 10 µM (inactive),> 10 µM (inactive),3.5 µM (inactive),> 10 µM (inactive),> 10 µM (inactive),> 10 µM (inactive),> 10 µM (inactive),5.82 µM (inactive),> 10 µM (inactive),> 10 µM (inactive),–,> 10 µM (inactive),> 10 µM (inactive)
O=c1cnn(C2OC(CO)C(O)C(F)C2O)c(=O)[nH]1 (stereo not given),> 100 µM (inactive),> 100,> 100 µM (inactive),> 100 µM (inactive),> 100 µM (inactive),–,> 100 µM (inactive),> 100 µM (inactive),> 100 µM (inactive),> 100 µM (inactive),–,> 100 µM (inactive),> 100 µM (inactive),> 100 µM (inactive),> 100 µM (inactive),> 100 µM (inactive),8.55 µM (inactive),> 100 µM (inactive),–,> 100 µM (inactive)
CCOC(=O)NNC(=O)NCCNC(=O)NNC(=O)OCC,> 100 µM (inactive),> 100,> 100 µM (inactive),> 100 µM (inactive),> 100 µM (inactive),> 100 µM (inactive),> 100 µM (inactive),> 100 µM (inactive),> 100 µM (inactive),> 100 µM (inactive),–,–,> 100 µM (inactive),> 100 µM (inactive),> 100 µM (inactive),> 100 µM (inactive),> 100 µM (inactive),–,> 100 µM (inactive),> 100 µM (inactive)
O=S1(=O)N=C(SCc2c[nH]c3ccccc23)N(c2ccccc2)c2ccncc21,> 100 µM (inactive),> 100,35.4 µM (inactive),> 100 µM (inactive),> 100 µM (inactive),46.7 µM (inactive),> 100 µM (inactive),> 100 µM (inactive),67.5 µM (inactive),> 100 µM (inactive),> 100 µM (inactive),–,> 100 µM (inactive),> 100 µM (inactive),> 100 µM (inactive),> 100 µM (inactive),34.2 µM (inactive),53.7 µM (inactive),–,> 100 µM (inactive)
